According to patent US11001615B2, “Mutated tau protein fragment and use thereof” (ADEL INC., priority 2016, dated 2021):
Entries after “also recorded” stand apart in the source; their conditions may differ. Ends that are not written are not given here.

What was measured:
Format in all cases: in vivo
[1] = tested on: Tau-P301L dementia mice; assay: Grip strength test
Description: (§1) JNPL3 mice expressing Tau-P301L mutant gene were purchased from Taconic, and back-crossed with C57bl/6 mice for five generations in the experimental animal room of the Asan Institute for Life Sciences. Then, the mice were raised under a specific pathogen free (SPE) condition. For active immunization, the mice were administered, for six months starting from three months after birth at intervals of two weeks, two weeks, four weeks, four weeks, five weeks, four weeks, and one week in this order, the four modified tau protein fragments prepared in Preparation Example 1 together with keyhole limpet hemocyanin (KLH) as a carrier and an aluminum adjuvant. At this time, administration was carried out through intraperitoneal injection (IP injection). The dementia mice which were actively immunized by administration of the K280-ac fragment were designated as Tau-P301L-K280-ac.
A grip strength test was performed to identify muscle strength of the mice. […] At this time, an iron bundle that weighs 40 g was used for the iron bundle. The mice produced in Preparation Example 2 were held by the tail end, and the forefeet of the mice were caused to be placed on the 40 g iron bundle so that the mice can grab the iron bundle. […] The time until the mice missed the iron bundle was measured and comparison was made for the respective mice.

[2] = tested on: Tau-P301L dementia mice; assay: MR spectroscopy (MRS) of the hippocampus; conditions: hippocampus ROI; dementia mice about 50% decrease versus normal mice
Description: as §1
In order to identify a metabolic imaging index-improving effect following administration of the K280-ac fragment, MR spectroscopy (MRS) was performed on the Tau-P301L-K280-ac dementia mice, the P301L-K280-ac dementia mice, and the normal mice produced in Preparation Example 2. The hippocampus was designated as a region of interest (ROI) (FIG. 36).

[3] = tested on: Tau-P301L dementia mice; assay: Western blotting of brain tissues for synapse-related proteins; conditions: brain tissue
Description: as §1
(§2) In order to identify a synapse-improving effect following administration of the K280-ac fragment, brain tissues of the Tau-P301L-K280-ac dementia mice, the P301L-K280-ac dementia mice, and the normal mice produced in Preparation Example 2 were extracted, and western blotting was performed.

[4] = tested on: Tau-P301L dementia mice; assay: Memory tests and motor ability tests after active immunization (overall comparison); conditions: comparison of the four modified tau protein fragments
Text: Tau-P301L dementia mice were actively immunized by administration of the four modified tau protein fragments prepared in Preparation Example 1. Then, the Tau-P301L dementia mice were subjected to memory tests such as fear conditioning test and Morris water maze test, motor ability tests such as grip strength test and vertical test, and the like, so that improved effects obtained by the respective modified tau protein fragments were compared.
as §1

[5] = tested on: Tau-P301L dementia mice; assay: ELISA using plasma: antibody production against modified tau protein fragments; conditions: ELISA using plasma after final administration; fragment with KLH and aluminum adjuvant, IP
Description: as §1
In order to identify whether antibodies against the four modified tau protein fragments prepared in Preparation Example 1 were produced, the respective modified tau protein fragments or the full-length tau protein was finally administered, and then ELISA was performed using plasma.

[6] = tested on: Tau-P301L dementia mice; assay: Western blotting of brain tissues for GCP-II; conditions: brain tissue
Description: as §1
Glutamate carboxypeptidase-2 ([…], folate hydrolase 1) is a NAAG peptidase that degrades NAAG. There is a possibility that an increase in GCP-II is a cause for decreased NAAG. Thus, brain tissues of the Tau-P301L-K280-ac dementia mice, the P301L-K280-ac dementia mice, and the normal mice produced in Preparation Example 2 were extracted and western blotting was performed.

[7] = tested on: Tau-P301L dementia mice; assay: Novel object recognition experiment; conditions: Tau-P301L 50% decrease versus normal mice
Description: as §1
In addition, a memory experiment was performed with novel object recognition. […] Two identical objects were placed in the white box, and then the time spent staying around each object was measured while allowing the mice to make exploration for 5 minutes. 4 hours later, one of the objects installed was replaced with another model, and movement of the mice and the time spent staying around the object were measured for 5 minutes.

[8] = tested on: Tau-P301L dementia mice; assay: Immunohistochemical staining of brain tissues for tau proteins; conditions: brain tissue
Description: as §1
as §2, with “tauopathy-alleviating” for “synapse-improving”, “and immunohistochemical staining were” for “was”

[9] = tested on: Tau-P301L dementia mice; assay: Forced swimming test; conditions: second day, 5 minutes
Description: as §1
A forced swimming test was conducted to identify a depression-ameliorating effect in the Tau-P301L dementia mice produced in Preparation Example 2. The experiment was conducted for a total of 2 days. […] An index to swim in water (Swimming/S), an index to climb up along the beaker wall (Climbing/C), and an index to float in water without any movement (Immobility/I) were respectively analyzed.

[10] = tested on: Tau-P301L dementia mice; assay: Fear conditioning experiment; conditions: actively immunized Tau-P301L dementia mice; normal mice about 150, Tau-P301L 100 or shorter
Description: as §1
A fear conditioning experiment was performed on the mice raised in Preparation Example 2. […]
On the day before the fear conditioning experiment, the mice were allowed to become accustomed to a training situation by being placed in the training situation for 10 minutes. […] All tests were recorded on Limelight (Actimetrics) and a computer.
On the next day, the mice were placed again in the experimental cage for 10 minutes and a baseline freezing time was measured while the beep sound was heard. […]

Substance: Val-Gln-Ile-Ile-Asn-Lys-Lys-Leu-Asp-Leu-Ser-Asn (VQIINK(Ac)KLDLSN) [K280-ac]
- measured time for grab strength ([1]; 40 g iron bundle, normal mice 10 or shorter, Tau-P301L 5 or shorter): about 12 seconds
- grip strength, change versus controls ([1]; actively immunized Tau-P301L dementia mice): restored to that of the normal mice
- N-acetyl-aspartyl-glutamic acid (NAAG) [2]: restored
- expression level of synapse-related proteins such as PSD95, NMDA receptor, synaptophysin, and synapsin-1 [3]: restored to that in the normal mice
- improved effect in memory and motor ability tests [4]: improved effect at a level similar to that in normal mice; also recorded: restores a motor ability and a cognitive function
- antibodies against the fragment produced [5]: well produced
- expression level of GCP-II [6]: decreased expression level of GCP-II which corresponds to that in the normal mice
- time spent staying around the novel object [7]: increased to a level which corresponds to that in the normal mice
- acetylated tau proteins [8]: decreased
- phosphorylated tau proteins [8]: decreased
- depression-ameliorating effect (immobility, swimming, climbing) [9]: depression-ameliorating effect is exhibited
- freezing time [10]: about 150 seconds
